Activity calls are given as the source filed them. No cut-off for these calls is given here.
Columns and labels:
[1] = molecular target: T1, Adenosine receptor A1 (Homo sapiens) (UniProt P30542); experiment: Allosteric modulation at human adenosine A1 receptor expressed in CHO FlpIn cells assessed as increase in EC50 concentration of N(6)-(R-phenylisopropyl)adenosine receptor agonist-induced ERK1/2 phosphorylation at 3 uM relative to control; type: functional, cell-based
T1 sequence (whole entry): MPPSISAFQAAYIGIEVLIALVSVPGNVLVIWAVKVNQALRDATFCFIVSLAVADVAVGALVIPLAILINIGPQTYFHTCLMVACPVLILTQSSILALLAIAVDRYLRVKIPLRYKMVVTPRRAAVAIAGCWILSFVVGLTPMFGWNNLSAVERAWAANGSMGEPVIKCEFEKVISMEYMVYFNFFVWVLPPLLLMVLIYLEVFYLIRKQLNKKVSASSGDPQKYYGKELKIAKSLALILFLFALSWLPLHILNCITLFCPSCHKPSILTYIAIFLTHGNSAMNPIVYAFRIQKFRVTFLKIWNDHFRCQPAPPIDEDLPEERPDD

[2] = molecular target: T1, Adenosine receptor A1 (Homo sapiens); experiment: Allosteric modulation at human adenosine A1 receptor expressed in CHO FlpIn cells assessed as increase in EC50 concentration of N(6)-(R-phenylisopropyl)adenosine receptor agonist-induced ERK1/2 phosphorylation at 10 uM relative to control; type: functional, cell-based
[3] = molecular target: T1, Adenosine receptor A1 (Homo sapiens); experiment: Allosteric modulation at human adenosine A1 receptor expressed in CHO FlpIn cells assessed as increase in ERK1/2 phosphorylation at 3 to 10 uM relative to control; type: cell-based
[4] = molecular target: T1, Adenosine receptor A1 (Homo sapiens); experiment: Allosteric modulation at human adenosine A1 receptor expressed in CHO FlpIn cells assessed as increase in leftward shift of N(6)-(R-phenylisopropyl)adenosine-mediated ERK1/2 phosphorylation curve at 0.1 to 10 uM; type: cell-based
[5] = molecular target: T1, Adenosine receptor A1 (Homo sapiens); experiment: Binding affinity to human adenosine A1 receptor allosteric site expressed in CHO FlpIn cells; type: cell-based

Activity [1] [%]	Activity [2] [%]	Activity [3]	Activity [4]	pKb [5]	SMILES
52	51	inactive	–	–	NNC(=O)c1c(N)sc2c1CCCCC2
70	91	Active	Active	5.1	Cc1ccc(C(=O)c2c(N)sc3c2CCCC3)cc1
49	47	inactive	–	–	Nc1sc2c(c1C(=O)NCc1cccc(Cl)c1)CCCCCC2
56	63	Active	–	–	Nc1sc2c(c1C(=O)c1ccc(Cl)cc1)CCCCCC2
48	48	inactive	–	–	NNC(=O)c1c(N)sc2c1CCCCCC2
49	36	inactive	–	–	Nc1sc2c(c1C(=O)c1ccccc1)CCCCCC2
48	48	inactive	–	–	NC(=O)c1c(N)sc2c1CCCCCC2
53	74	inactive	–	–	Nc1sc2c(c1C(=O)c1cccc(C(F)(F)F)c1)CCCCC2
47	50	inactive	–	–	NC(=O)c1c(N)sc2c1CCCCC2
50	56	inactive	–	–	Cc1ccc(C(=O)c2c(N)sc3c2CCC3)cc1
75	98	Active	–	–	Nc1sc2c(c1C(=O)c1cccc(C(F)(F)F)c1)CCC2
57	65	inactive	Active	5.07	Nc1sc2c(c1C(=O)c1cccc(C(F)(F)F)c1)CCCCCC2
56	75	inactive	–	–	Cc1ccc(C(=O)c2c(N)sc3c2CCCCCC3)cc1
55	68	inactive	–	–	Cc1ccc(C(=O)c2c(N)sc3c2CCCCC3)cc1
73	88	Active	–	–	Nc1sc2c(c1C(=O)c1cccc(C(F)(F)F)c1)CCCC2
48	50	inactive	–	–	Nc1sc2c(c1C(=O)NCc1ccccc1)CCCCCC2
44	42	inactive	–	–	Nc1sc2c(c1C(=O)NNc1ccccc1)CCCCC2
47	43	inactive	–	–	Nc1sc2c(c1C(=O)NNc1ccccc1)CCCCCC2
